This note sets out measurements from ChEMBL document CHEMBL1201862, “PubChem BioAssay data set” (2004).

Active and inactive are the calls of the source. Where only a bound is given, the exact number is not on record here.

One assay has as its target T1, Exodeoxyribonuclease V (Escherichia coli (strain K12), UniProt P04993+P07648+P08394).
T1 sequence (P04993 whole entry): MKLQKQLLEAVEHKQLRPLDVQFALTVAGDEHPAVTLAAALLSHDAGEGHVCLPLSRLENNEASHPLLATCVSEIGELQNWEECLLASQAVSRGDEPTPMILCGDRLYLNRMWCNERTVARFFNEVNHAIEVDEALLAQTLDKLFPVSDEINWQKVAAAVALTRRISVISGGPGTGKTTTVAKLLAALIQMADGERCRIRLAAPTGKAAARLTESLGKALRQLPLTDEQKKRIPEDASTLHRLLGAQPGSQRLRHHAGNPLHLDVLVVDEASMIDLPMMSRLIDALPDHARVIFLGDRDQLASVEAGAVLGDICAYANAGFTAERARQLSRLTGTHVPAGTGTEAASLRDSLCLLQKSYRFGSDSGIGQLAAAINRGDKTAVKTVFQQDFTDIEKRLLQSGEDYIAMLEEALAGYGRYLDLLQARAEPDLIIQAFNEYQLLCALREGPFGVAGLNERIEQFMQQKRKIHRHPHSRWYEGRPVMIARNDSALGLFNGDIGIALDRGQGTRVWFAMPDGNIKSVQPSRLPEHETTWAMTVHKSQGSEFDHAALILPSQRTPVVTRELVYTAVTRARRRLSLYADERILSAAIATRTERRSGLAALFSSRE
T1 sequence (P07648 whole entry): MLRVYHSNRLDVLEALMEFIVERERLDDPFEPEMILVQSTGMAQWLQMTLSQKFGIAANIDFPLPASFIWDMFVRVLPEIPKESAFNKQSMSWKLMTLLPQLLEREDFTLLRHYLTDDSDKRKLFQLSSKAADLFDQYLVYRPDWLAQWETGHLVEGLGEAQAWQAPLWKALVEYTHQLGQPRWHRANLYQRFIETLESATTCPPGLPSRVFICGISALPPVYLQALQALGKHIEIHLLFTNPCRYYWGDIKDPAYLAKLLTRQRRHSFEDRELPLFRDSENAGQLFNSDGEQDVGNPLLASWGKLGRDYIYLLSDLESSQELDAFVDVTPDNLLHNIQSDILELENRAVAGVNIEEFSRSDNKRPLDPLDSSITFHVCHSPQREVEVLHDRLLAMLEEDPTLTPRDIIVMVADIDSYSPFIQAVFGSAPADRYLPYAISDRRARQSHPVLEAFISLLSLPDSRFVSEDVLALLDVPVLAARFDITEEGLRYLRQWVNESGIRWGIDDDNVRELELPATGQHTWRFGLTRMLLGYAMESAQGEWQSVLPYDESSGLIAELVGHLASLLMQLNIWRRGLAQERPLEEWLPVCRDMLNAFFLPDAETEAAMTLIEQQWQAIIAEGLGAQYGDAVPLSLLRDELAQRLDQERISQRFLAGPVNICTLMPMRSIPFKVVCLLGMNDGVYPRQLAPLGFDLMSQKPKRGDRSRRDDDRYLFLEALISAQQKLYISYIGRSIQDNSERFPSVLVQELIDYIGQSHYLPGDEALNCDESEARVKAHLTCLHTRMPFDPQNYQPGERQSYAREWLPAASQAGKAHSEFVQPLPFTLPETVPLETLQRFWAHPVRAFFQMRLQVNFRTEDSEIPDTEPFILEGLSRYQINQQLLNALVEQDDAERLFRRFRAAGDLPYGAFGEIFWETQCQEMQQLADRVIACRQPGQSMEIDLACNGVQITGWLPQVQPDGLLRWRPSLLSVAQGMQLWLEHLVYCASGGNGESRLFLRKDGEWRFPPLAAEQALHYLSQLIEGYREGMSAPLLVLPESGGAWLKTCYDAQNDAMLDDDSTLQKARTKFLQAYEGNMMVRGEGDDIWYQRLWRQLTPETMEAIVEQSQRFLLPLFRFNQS
T1 sequence (P08394 whole entry): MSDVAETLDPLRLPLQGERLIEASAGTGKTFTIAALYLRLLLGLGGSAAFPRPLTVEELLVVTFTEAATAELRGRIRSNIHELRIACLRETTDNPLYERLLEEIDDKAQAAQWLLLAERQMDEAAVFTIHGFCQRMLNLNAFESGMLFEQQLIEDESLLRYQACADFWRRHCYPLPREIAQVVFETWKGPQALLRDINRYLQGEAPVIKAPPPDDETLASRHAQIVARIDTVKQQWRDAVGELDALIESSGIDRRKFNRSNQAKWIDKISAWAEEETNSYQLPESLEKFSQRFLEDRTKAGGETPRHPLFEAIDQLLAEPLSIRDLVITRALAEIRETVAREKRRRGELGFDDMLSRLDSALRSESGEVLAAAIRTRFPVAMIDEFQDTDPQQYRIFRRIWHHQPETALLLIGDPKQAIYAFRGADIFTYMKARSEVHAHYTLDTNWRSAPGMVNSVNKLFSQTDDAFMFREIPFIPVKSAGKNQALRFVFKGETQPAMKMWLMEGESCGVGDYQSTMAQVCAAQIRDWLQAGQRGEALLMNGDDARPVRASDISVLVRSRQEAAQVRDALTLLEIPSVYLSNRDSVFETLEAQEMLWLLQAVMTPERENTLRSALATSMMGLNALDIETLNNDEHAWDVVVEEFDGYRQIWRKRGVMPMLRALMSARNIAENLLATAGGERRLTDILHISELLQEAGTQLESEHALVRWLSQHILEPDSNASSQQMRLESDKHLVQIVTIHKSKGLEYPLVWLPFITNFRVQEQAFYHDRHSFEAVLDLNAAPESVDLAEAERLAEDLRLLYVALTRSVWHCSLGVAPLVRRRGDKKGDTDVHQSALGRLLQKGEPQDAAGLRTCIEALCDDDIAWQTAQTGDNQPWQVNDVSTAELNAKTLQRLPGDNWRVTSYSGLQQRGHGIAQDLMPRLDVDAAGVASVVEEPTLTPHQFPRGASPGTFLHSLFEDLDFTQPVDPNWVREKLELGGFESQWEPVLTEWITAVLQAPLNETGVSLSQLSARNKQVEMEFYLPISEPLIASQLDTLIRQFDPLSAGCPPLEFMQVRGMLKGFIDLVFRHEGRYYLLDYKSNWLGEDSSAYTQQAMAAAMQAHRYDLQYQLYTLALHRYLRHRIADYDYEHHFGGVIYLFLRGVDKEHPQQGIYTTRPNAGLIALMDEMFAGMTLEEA
The experiment in a line: RecBCD inhibition via phage-restricted bacterial growth – absorbance, V66 E. coli, mutant T4 phage, counter-screen for AddAB inhibitor project, dose response (AID 492957). It counts as functional, cell-based, Escherichia coli str. K-12 substr. MG1655. For orientation: Counterscreens check selectivity or assay interference.

In a further assay the target is Mu-type opioid receptor (Homo sapiens, UniProt P35372). The experiment in a line: Counterscreen for agonists of heterodimerization of the mu 1 (OPRM1) and delta 1 (OPRD1) opioid receptors: Luminescence-based cell-based high throughput dose response assay to identify agonists of OPRM1 homodimerization. It counts as functional.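 Further: U2OS cells expressing OPRM1 and beta-arrestin as split beta-galactosidase partners.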
Chain of Mu-type opioid receptor (P35372 whole entry): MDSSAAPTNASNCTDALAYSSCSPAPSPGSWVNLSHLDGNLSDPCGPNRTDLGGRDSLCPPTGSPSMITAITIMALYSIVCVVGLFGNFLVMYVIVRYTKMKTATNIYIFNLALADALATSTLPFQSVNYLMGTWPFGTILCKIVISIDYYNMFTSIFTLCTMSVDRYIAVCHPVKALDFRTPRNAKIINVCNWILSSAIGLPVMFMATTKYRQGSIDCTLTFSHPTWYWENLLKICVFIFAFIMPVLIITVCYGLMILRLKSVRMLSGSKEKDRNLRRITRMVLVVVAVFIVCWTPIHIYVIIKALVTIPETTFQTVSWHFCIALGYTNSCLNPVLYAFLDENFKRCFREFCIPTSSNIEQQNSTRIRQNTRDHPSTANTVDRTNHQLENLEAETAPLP
Assay [1] in a line: HepG2 cell cytotoxicity, dose response, cytotoxicity control for non-replicating M. tuberculosis project (AID 489018). The assay is classed as functional. Particulars: Mycobacterium tuberculosis.

A word on the IC50: it is the concentration that gives 50% inhibition. `CC(=O)NC(c1ccc2ccccc2c1)c1ccc2cccnc2c1O` (stereo not drawn): the IC50 on Exodeoxyribonuclease V is > 118 µM (inactive).

Broadly, the EC50 is the concentration at which the effect is half-maximal. As for `CCc1ccc(Nc2n[n+](-c3ccccc3)c(-c3c(Cl)cccc3Cl)s2)cc1`, at Mu-type opioid receptor, the EC50 is > 92.5 µM (inactive).

As usually defined, the CC50 is the concentration that lowers cell viability or growth by half. `CCOC(=O)C1=C(c2ccccc2)N=C(N)NC1c1ccc(OCc2ccc(Cl)cc2)c(OC)c1` (stereo not drawn): in assay [1], the CC50 was 13.1 µM (active).
